Data taken from patent US20080287299A1, “Use of Imidazole and/or Triazole Derivatives for Combating Plant Pests; as Well as Method for Controlling Diseases/Insects/Mites/Nematodes and Weeds, Particularly Foliar and/or Soil Diseases” (priority 2005, published 2008).

How the values were obtained:
Phakopsora pachyrhizi [1] = assay: Greenhouse soybean rust test, plants at V5 stage, evaluated every 7 days; type: in vivo; settings: for SEVERITY OF RUST (% IFA) 7 DAT / SEVERITY OF RUST (% IFA) 14 DAT / SEVERITY OF RUST (% IFA) 21 DAT / SEVERITY OF RUST (% IFA) 28 DAT: soybean; for effective in controlling soybean rust: from 50 grams of active ingredient per hectare
Source text: (§1) Recent tests carried out in greenhouses the laboratory of FMC Quimica do Brasil Ltda. in Uberaba, MG, Brazil, show the highly fungicidal effect of said specific imidazole and/or triazole derivatives in combating diseases of plants, particularly against the attack by the fungus Phakopsora pachyrhizi on soybeans, as described hereinafter.
Experimental Outline Experimental Outline: entirely made with five repetitions, two plants per repetition, totaling 10 plants.
a) Preventive Mode: 30 days after plantation of the soybeans in plastic 2-liter pots and with corresponding volumes of soil, the soybean plants were at the V5 stage with six expanded folioles. At this moment, the compounds were sprayed and then, 48 hours afterwards, inoculation of the rust was effected. To effect the inoculation, one prepared a suspension of Phakopsora uredospores at the concentration of 2×10^4 spores/milliliters.
b) Healing mode: 30 days after plantation of the soybeans in 2-liter plastic pots and with a corresponding volume of soil, the soybean plants were at the V5 stage with six expanded folioles. At this moment, one effected the inoculation of the rust and then, 48 hours afterwards, the compounds were sprayed. To effect the inoculation, one prepared a suspension of Phakopsora uredospores at the concentration of 2×10^4 spores/milliliters.
(§2) Equipment: a manual sprayer commonly used in agriculture with 2-liter capacity.
Dosages: 50 to 300 grams per hectare of the active compound Itraconazole per liter diluted in water.
(§3) Evaluations of the Effectiveness of the Product: The evaluations were made every 7 days after application of the product, in a total of 4 evaluations. As an evaluation parameter one utilized the severity of the disease (percentage of foliar area attacked by rust) according to FIG. 1).
Dosages: 50 to 300 grams per hectare of the active compound Voriconazole per liter diluted in water.

Phakopsora pachyrhizi [2] = assay: Greenhouse soybean rust test, plants at V6 stage, evaluated every 5 days; type: in vivo; settings: for SEVERITY OF RUST (% IFA) 5 DAT / SEVERITY OF RUST (% IFA) 10 DAT / SEVERITY OF RUST (% IFA) 15 DAT: soybean
Source text: as §1, with “hereinafter. […]” for “hereinafter.”
as §2
Dosages: 50 to 500 grams per hectare of the active compound Fluconazole per liter diluted in water.
as §3, with “5” for “7”, “the diagrammatic scale of the EMBRAPA (FIG.” for “FIG.”, “1). […]” for “1).”
Dosages: 50 to 500 grams per hectare of the active compound Itraconazole per liter diluted in water.

## C[C@@H](c1nc(-c2ccc(C#N)cc2)cs1)[C@](O)(Cn1cncn1)c1ccc(F)cc1F [Ravuconazole, 4-[2-[(1R,2R)-2-(2,4-difluor-phenyl)-2-hydroxy-1-methyl-3-(1H-1,2,4-triazol-1-yl)propyl]4-thiazolyl]-benzonitriyl]
Phakopsora pachyrhizi [1]; Table 4: 50 g ca/ha
  SEVERITY OF RUST (% IFA) 7 DAT: 15 % IFA
  SEVERITY OF RUST (% IFA) 14 DAT: 16 % IFA
  SEVERITY OF RUST (% IFA) 21 DAT: 16 % IFA
  SEVERITY OF RUST (% IFA) 28 DAT: 18 % IFA
Phakopsora pachyrhizi [1]; Table 4: 100 g ca/ha
  SEVERITY OF RUST (% IFA) 7 DAT: 12 % IFA
  SEVERITY OF RUST (% IFA) 14 DAT: 12 % IFA
  SEVERITY OF RUST (% IFA) 21 DAT: 14 % IFA
  SEVERITY OF RUST (% IFA) 28 DAT: 18 % IFA
Phakopsora pachyrhizi [1]; Table 4: 150 g ca/ha
  SEVERITY OF RUST (% IFA) 7 DAT: 9 % IFA
  SEVERITY OF RUST (% IFA) 14 DAT: 11 % IFA
  SEVERITY OF RUST (% IFA) 21 DAT: 11 % IFA
  SEVERITY OF RUST (% IFA) 28 DAT: 16 % IFA
Phakopsora pachyrhizi [1]; Table 4: 200 g ca/ha
  SEVERITY OF RUST (% IFA) 7 DAT: 3 % IFA
  SEVERITY OF RUST (% IFA) 14 DAT: 7 % IFA
  SEVERITY OF RUST (% IFA) 21 DAT: 11 % IFA
  SEVERITY OF RUST (% IFA) 28 DAT: 15 % IFA
Phakopsora pachyrhizi [1]; Table 4: 300 g ca/ha
  SEVERITY OF RUST (% IFA) 7 DAT: 2 % IFA
  SEVERITY OF RUST (% IFA) 14 DAT: 3 % IFA
  SEVERITY OF RUST (% IFA) 21 DAT: 9 % IFA
  SEVERITY OF RUST (% IFA) 28 DAT: 11 % IFA
Phakopsora pachyrhizi [1]
  effective in controlling soybean rust: effective

## CC[C@@H]([C@H](C)O)n1ncn(-c2ccc(N3CCN(c4ccc(OC[C@@H]5CO[C@](Cn6cncn6)(c6ccc(F)cc6F)C5)cc4)CC3)cc2)c1=O [Posaconazole, 1-((1S,2S)-1-ethyl-2-hydroxypropyl)-4-{4-[4-(4-{[(5S,3R)-5-(2,4-difluorophenyl)-5-(1,2,4-triazolylmethyll)oxolan-3-yl]methoxy}phenyl)pipera-zinyl]phenyl}-1,2,4-triazolin-5-one]
Phakopsora pachyrhizi [1]; Table 6: 50 g ac/ha
  SEVERITY OF RUST (% IFA) 7 DAT: 11 % IFA
  SEVERITY OF RUST (% IFA) 14 DAT: 13 % IFA
  SEVERITY OF RUST (% IFA) 21 DAT: 15 % IFA
  SEVERITY OF RUST (% IFA) 28 DAT: 14 % IFA
Phakopsora pachyrhizi [1]; Table 6: 100 g ac/ha
  SEVERITY OF RUST (% IFA) 7 DAT: 5 % IFA
  SEVERITY OF RUST (% IFA) 14 DAT: 8 % IFA
  SEVERITY OF RUST (% IFA) 21 DAT: 12 % IFA
  SEVERITY OF RUST (% IFA) 28 DAT: 13 % IFA
Phakopsora pachyrhizi [1]; Table 6: 150 g ac/ha
  SEVERITY OF RUST (% IFA) 7 DAT: 0 % IFA
  SEVERITY OF RUST (% IFA) 14 DAT: 6 % IFA
  SEVERITY OF RUST (% IFA) 21 DAT: 9 % IFA
  SEVERITY OF RUST (% IFA) 28 DAT: 12 % IFA
Phakopsora pachyrhizi [1]; Table 6: 200 g ac/ha
  SEVERITY OF RUST (% IFA) 7 DAT: 3 % IFA
  SEVERITY OF RUST (% IFA) 14 DAT: 0 % IFA
  SEVERITY OF RUST (% IFA) 21 DAT: 6 % IFA
  SEVERITY OF RUST (% IFA) 28 DAT: 9 % IFA
Phakopsora pachyrhizi [1]; Table 6: 300 g ac/ha
  SEVERITY OF RUST (% IFA) 7 DAT: 0 % IFA
  SEVERITY OF RUST (% IFA) 14 DAT: 0 % IFA
  SEVERITY OF RUST (% IFA) 21 DAT: 3 % IFA
  SEVERITY OF RUST (% IFA) 28 DAT: 7 % IFA
Phakopsora pachyrhizi [1]
  effective in controlling soybean rust: effective in controlling soybean rust

## CCC(C)n1ncn(-c2ccc(N3CCN(c4ccc(OC[C@H]5CO[C@](Cn6cncn6)(c6ccc(Cl)cc6Cl)O5)cc4)CC3)cc2)c1=O (mixture of isomers) [Itraconazole, 4-[4-[4-[4-[[2-(2,4-dichlorophenyl)-2-(1H-1,2,4-triazol-1-ylmethyl)-1,3-dioxolan-4-yl]methoxy]phenyl]-1-pipera-zinyl]phenyl]-2,4-dihydro-2-(1-methylpropyl) 3H-1,2,4-triazol-3-one]
Phakopsora pachyrhizi [2]; Table 3: 50 g ac/ha
  SEVERITY OF RUST (% IFA) 5 DAT: 6 % IFA
  SEVERITY OF RUST (% IFA) 10 DAT: 12 % IFA
  SEVERITY OF RUST (% IFA) 15 DAT: 11 % IFA
Phakopsora pachyrhizi [2]; Table 3: 100 g ac/ha
  SEVERITY OF RUST (% IFA) 5 DAT: 5 % IFA
  SEVERITY OF RUST (% IFA) 10 DAT: 13 % IFA
  SEVERITY OF RUST (% IFA) 15 DAT: 10 % IFA
Phakopsora pachyrhizi [2]; Table 3: 150 g ac/ha
  SEVERITY OF RUST (% IFA) 5 DAT: 5 % IFA
  SEVERITY OF RUST (% IFA) 10 DAT: 13 % IFA
  SEVERITY OF RUST (% IFA) 15 DAT: 10 % IFA
Phakopsora pachyrhizi [2]; Table 3: 250 g ac/ha
  SEVERITY OF RUST (% IFA) 5 DAT: 3 % IFA
  SEVERITY OF RUST (% IFA) 10 DAT: 14 % IFA
  SEVERITY OF RUST (% IFA) 15 DAT: 10 % IFA
Phakopsora pachyrhizi [2]; Table 3: 500 g ac/ha
  SEVERITY OF RUST (% IFA) 5 DAT: 0 % IFA
  SEVERITY OF RUST (% IFA) 10 DAT: 10 % IFA
  SEVERITY OF RUST (% IFA) 15 DAT: 0 % IFA
Phakopsora pachyrhizi [2]; from 50 grams of active ingredient per hectare
  effective in controlling soybean rust: effective in controlling soybean rust

## C[C@@H](c1ncncc1F)[C@](O)(Cn1cncn1)c1ccc(F)cc1F (relative stereo) [Voriconazole, alpha-(2,4-difluorophenyll)-5-fluor-beta-methyl-alpha-(1H-1,2,4-triazol-1-yllmethyl)-(R—(R*,S*))-4-pirimidinetanole]
Phakopsora pachyrhizi [1]; Table 5: 50 g ac/ha
  SEVERITY OF RUST (% IFA) 7 DAT: 8 % IFA
  SEVERITY OF RUST (% IFA) 14 DAT: 10 % IFA
  SEVERITY OF RUST (% IFA) 21 DAT: 10 % IFA
  SEVERITY OF RUST (% IFA) 28 DAT: 13 % IFA
Phakopsora pachyrhizi [1]; Table 5: 100 g ac/ha
  SEVERITY OF RUST (% IFA) 7 DAT: 8 % IFA
  SEVERITY OF RUST (% IFA) 14 DAT: 8 % IFA
  SEVERITY OF RUST (% IFA) 21 DAT: 11 % IFA
  SEVERITY OF RUST (% IFA) 28 DAT: 18 % IFA
Phakopsora pachyrhizi [1]; Table 5: 150 g ac/ha
  SEVERITY OF RUST (% IFA) 7 DAT: 8 % IFA
  SEVERITY OF RUST (% IFA) 14 DAT: 8 % IFA
  SEVERITY OF RUST (% IFA) 21 DAT: 10 % IFA
  SEVERITY OF RUST (% IFA) 28 DAT: 18 % IFA
Phakopsora pachyrhizi [1]; Table 5: 200 g ac/ha
  SEVERITY OF RUST (% IFA) 7 DAT: 4 % IFA
  SEVERITY OF RUST (% IFA) 14 DAT: 7 % IFA
  SEVERITY OF RUST (% IFA) 21 DAT: 11 % IFA
  SEVERITY OF RUST (% IFA) 28 DAT: 11 % IFA
Phakopsora pachyrhizi [1]; Table 5: 300 g ac/ha
  SEVERITY OF RUST (% IFA) 7 DAT: 2 % IFA
  SEVERITY OF RUST (% IFA) 14 DAT: 0 % IFA
  SEVERITY OF RUST (% IFA) 21 DAT: 1 % IFA
  SEVERITY OF RUST (% IFA) 28 DAT: 5 % IFA
Phakopsora pachyrhizi [1]
  effective in controlling soybean rust: effective in controlling soybean rust
